ChEMBL document CHEMBL1201862, “PubChem BioAssay data set” (2004)
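Method: 48-hour compound exposure of cells in 96-well plates, five concentrations, linear interpolation of endpoints. Abbreviation: GI50, concentration required for 50% inhibition of growth.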 Calls of active or inactive are those of the source. No stated cut-off is given here; in the data, active = GI50 up to about 1.1 µM and inactive = higher.

Legend:
Experiment in all cases: NCI tumour cell line growth inhibition, 48 h
COLO 205 = system: COLO 205
DU-145 = system: DU-145
HCC 2998 = system: HCC 2998
HL-60 = system: HL-60
HT-29 = system: HT-29
MDA-MB-231 = system: MDA-MB-231
MDA-N = system: MDA-N
NCI-H522 = system: NCI-H522
NCI/ADR-RES = system: NCI/ADR-RES
OVCAR-8 = system: OVCAR-8
PC-3 = system: PC-3
RPMI-8226 = system: RPMI-8226
SF-295 = system: SF-295
SK-MEL-28 = system: SK-MEL-28
SK-MEL-2 = system: SK-MEL-2
SK-OV-3 = system: SK-OV-3
SNB-19 = system: SNB-19
SR = system: SR
U-251 = system: U-251
RXF 393 = system: RXF 393

SMILES	GI50 (COLO 205)	GI50 (DU-145)	GI50 (HCC 2998)	GI50 (HL-60)	GI50 (HT-29)	GI50 (MDA-MB-231)	GI50 (MDA-N)	GI50 (NCI-H522)	GI50 (NCI/ADR-RES)	GI50 (OVCAR-8)	GI50 (PC-3)	GI50 (RPMI-8226)	GI50 (SF-295)	GI50 (SK-MEL-28)	GI50 (SK-MEL-2)	GI50 (SK-OV-3)	GI50 (SNB-19)	GI50 (SR)	GI50 (U-251)	GI50 (RXF 393)
CC(=O)c1c2c(cc3c1CCC3)CCC2	> 100 µM (inactive)	> 100 µM (inactive)	> 100 µM (inactive)	> 100 µM (inactive)	> 100 µM (inactive)	> 100 µM (inactive)	> 100 µM (inactive)	> 100 µM (inactive)	> 100 µM (inactive)	> 100 µM (inactive)	55.3 µM (inactive)	76 µM (inactive)	> 100 µM (inactive)	> 100 µM (inactive)	> 100 µM (inactive)	> 100 µM (inactive)	> 100 µM (inactive)	> 100 µM (inactive)	> 100 µM (inactive)	–
c1ccc2cc(OCC3CO3)c(OCC3CO3)cc2c1 (centres undefined)	12.8 µM (inactive)	3.85 µM (inactive)	–	1.53 µM (inactive)	7.05 µM (inactive)	14.5 µM (inactive)	10.1 µM (inactive)	1.87 µM (inactive)	4.05 µM (inactive)	2.94 µM (inactive)	12.7 µM (inactive)	1.92 µM (inactive)	2.21 µM (inactive)	11.9 µM (inactive)	10.9 µM (inactive)	10.6 µM (inactive)	5.3 µM (inactive)	0.333 µM (active)	2.9 µM (inactive)	< 0.01 µM (active)
CCC/C(Cl)=N/OC(NC(=O)OCC)(C(F)(F)F)C(F)(F)F	19.8 µM (inactive)	> 100 µM (inactive)	–	17.4 µM (inactive)	22.4 µM (inactive)	17.6 µM (inactive)	20.5 µM (inactive)	> 100 µM (inactive)	34.5 µM (inactive)	33.9 µM (inactive)	98.9 µM (inactive)	23.1 µM (inactive)	> 100 µM (inactive)	26.5 µM (inactive)	> 100 µM (inactive)	–	> 100 µM (inactive)	23.1 µM (inactive)	> 100 µM (inactive)	19 µM (inactive)
CCOC(=O)c1nc2cc(C(F)(F)F)ccc2nc1Oc1ccc(C#N)cc1	> 100 µM (inactive)	> 100 µM (inactive)	80 µM (inactive)	71.8 µM (inactive)	–	> 100 µM (inactive)	> 100 µM (inactive)	> 100 µM (inactive)	> 100 µM (inactive)	> 100 µM (inactive)	> 100 µM (inactive)	54.3 µM (inactive)	> 100 µM (inactive)	> 100 µM (inactive)	> 100 µM (inactive)	–	> 100 µM (inactive)	60.7 µM (inactive)	> 100 µM (inactive)	19.1 µM (inactive)
Nc1ccc(Nc2cc(O)nc(O)n2)cc1	–	> 100 µM (inactive)	> 100 µM (inactive)	> 100 µM (inactive)	> 100 µM (inactive)	> 100 µM (inactive)	> 100 µM (inactive)	> 100 µM (inactive)	> 100 µM (inactive)	> 100 µM (inactive)	> 100 µM (inactive)	> 100 µM (inactive)	> 100 µM (inactive)	> 100 µM (inactive)	–	> 100 µM (inactive)	> 100 µM (inactive)	> 100 µM (inactive)	> 100 µM (inactive)	–
O=c1c(O)c(-c2cc(O)c(O)c(O)c2)oc2cc(O)cc(O)c12 [MYRICETIN]	65.9 µM (inactive)	> 100 µM (inactive)	–	56.6 µM (inactive)	20.3 µM (inactive)	18.1 µM (inactive)	10 µM (inactive)	68.1 µM (inactive)	22.4 µM (inactive)	17.9 µM (inactive)	> 100 µM (inactive)	36.1 µM (inactive)	20.3 µM (inactive)	> 100 µM (inactive)	> 100 µM (inactive)	> 100 µM (inactive)	–	40.7 µM (inactive)	18.7 µM (inactive)	20.8 µM (inactive)
